# Results: patent US20110281869A1, “TETRAHYDROISOQUINOLINES AS ANTIMALARIAL AGENTS” (priority 2008, published 2011)
# Test system: P. falciparum K1
# Assay: Plasmodium falciparum in vitro assay ([3H] hypoxanthine incorporation)
# Assay type: cell-based
# Settings: Plasmodium falciparum; erythrocytic stages, strain K1 resistant to chloroquine and pyrimethamine, human red cells; read-out: IC50 (nM) on K1
# Experimental: In vitro antimalarial activity: Plasmodium falciparum in vitro assay In vitro activity against erythrocytic stages of P. falciparum is determined using a [^3H] hypoxanthine incorporation assay. One strain resistant to chloroquine and pyrimethamine (P. falciparum K1) is used in the assays, and all test compounds are compared for activity with the standard drugs chloroquine (sigma C6628) and artemisinin (sigma-36, 159-3). Compounds are diluted in DMSO to 1 mM and added to parasite cultures incubated in RPMI 1640 medium without hypoxanthine, supplemented with HEPES (5.94 g/L), NaHCO3 (2.1 g/L), neomycin (100 U/mL), Albumax (5 g/L) and washed human red cells at 2.5% hematocrit (0.3% parasitaemia). Seven serial doubling dilutions of each drug are prepared in 96-well microtitre plates and incubated in a humidifying atmosphere at 37° C.; 4% CO2, 3% O2, 93% N2.
# After 48 h, 50 μl of [^3H] hypoxanthine (0.5 μCi) is added to each well of a plate. The plates are incubated for a further 24 h under the same conditions. The plates are then harvested with a Betaplate cell harvester (Wallac) and washed with distilled water. The dried filters are inserted into a plastic foil with 10 mL of scintillation fluid, and counted in a Betaplate liquid scintillation counter. IC50 values are calculated from sigmoidal inhibition curves using Microsoft Excel.
row,Compound,IC50 [nM]
1,"Cc1nc(C)c(C=CC(=O)N(Cc2ccc(-c3ccccn3)cc2)[C@@H](Cc2ccccc2)C(=O)N2CCc3ccccc3C2)s1 [Example 51, (S)—N-[1-Benzyl-2-(3,4-dihydro-1H-isoquinolin-2-yl)-2-oxo-ethyl]-3-(2,4-dimethyl-thiazol-5-yl)-N-(4-pyridin-2-yl-benzyl)-acrylamide]",17
2,"Cc1c(C=CC(=O)N(Cc2ccc(-c3ccccn3)cc2)[C@@H](Cc2ccccc2)C(=O)N2CCc3ccccc3C2)cnn1C [Example 65, (S)—N-[1-Benzyl-2-(3,4-dihydro-1H-isoquinolin-2-yl)-2-oxo-ethyl]-3-(1,5-dimethyl-1H-pyrazol-4-yl)-N-(4-pyridin-2-yl-benzyl)-acrylamide]",10
3,"Cn1cc(C=CC(=O)N(Cc2ccc(-n3cncn3)cc2)[C@@H](Cc2ccccc2)C(=O)N2CCc3ccccc3C2)cn1 [Example 172, (S)—N-[1-Benzyl-2-(3,4-dihydro-1H-isoquinolin-2-yl)-2-oxo-ethyl]-3-(1-methyl-1H-pyrazol-4-yl)-N-(4-[1,2,4]-triazol-1-yl-benzyl)-acrylamide]",25
4,"COc1ccc(C=CC(=O)N(Cc2ccc(-c3ncccn3)cc2)[C@@H](Cc2ccccc2)C(=O)N2CCc3ccccc3C2)cn1 [Example 93, (S)—N-[1-Benzyl-2-(3,4-dihydro-1H-isoquinolin-2-yl)-2-oxo-ethyl]-3-(6-methoxy-pyridin-3-yl)-N-(4-pyrimidin-2-yl-benzyl)-acrylamide]",19
5,"Cn1nccc1CC(C(=O)N1CCc2ccccc2C1)N(Cc1ccc(-c2ccncc2)cc1)C(=O)C=Cc1ccc(C(F)(F)F)cc1 (racemic) [Example 84, rac-N-[2-(3,4-Dihydro-1H-isoquinolin-2-yl)-1-(2-methyl-2H-pyrazol-3-ylmethyl)-2-oxo-ethyl]-N-(4-pyridin-4-yl-benzyl)-3-(4-trifluoromethyl-phenyl)-acrylamide]",84
6,"Cc1ccc(C=CC(=O)N(Cc2ccc(-c3ccccn3)cc2)[C@@H](Cc2ccccc2)C(=O)N2CCc3ccccc3C2)cn1 [Example 59, (S)—N-[1-Benzyl-2-(3,4-dihydro-1H-isoquinolin-2-yl)-2-oxo-ethyl]-3-(6-methyl-pyridin-3-yl)-N-(4-pyridin-2-yl-benzyl)-acrylamide]",14
7,"COc1ccc(C=CC(=O)N(Cc2ccc(-c3ccncc3)cc2)[C@@H](Cc2ccccc2)C(=O)N2CCc3ccccc3C2)nn1 [Example 239, (S)—N-[1-Benzyl-2-(3,4-dihydro-1H-isoquinolin-2-yl)-2-oxo-ethyl]-3-(6-methoxy-pyridazin-3-yl)-N-(4-pyridin-4-yl-benzyl)-acrylamide]",9
8,"Cn1cc(CC(C(=O)N2CCc3ccccc3C2)N(Cc2ccc(-c3ccncc3)cc2)C(=O)C=Cc2ccc(C(F)(F)F)cc2)cn1 (racemic) [Example 80, rac-N-[2-(3,4-Dihydro-1H-isoquinolin-2-yl)-1-(1-methyl-1H-pyrazol-4-ylmethyl)-2-oxo-ethyl]-N-(4-pyridin-4-yl-benzyl)-3-(4-trifluoromethyl-phenyl)-acrylamide]",107
9,"COc1ncc(C=CC(=O)N(Cc2ccc(-c3cnccn3)cc2)[C@@H](Cc2ccccc2)C(=O)N2CCc3ccccc3C2)cn1 [Example 114, (S)—N-[1-Benzyl-2-(3,4-dihydro-1H-isoquinolin-2-yl)-2-oxo-ethyl]-3-(2-methoxy-pyrimidin-5-yl)-N-(4-pyrazin-2-yl-benzyl)-acrylamide]",63
10,"Cc1ncc(C=CC(=O)N(Cc2ccc(-c3ccncc3)cc2)[C@@H](Cc2ccccc2)C(=O)N2CCc3ccccc3C2)n1C [Example 246, (S)—N-[1-Benzyl-2-(3,4-dihydro-1H-isoquinolin-2-yl)-2-oxo-ethyl]-3-(2,3-dimethyl-3H-imidazol-4-yl)-N-(4-pyridin-4-yl-benzyl)-acrylamide]",17
11,"Cn1cc(C=CC(=O)N(Cc2ccc(-c3cnccn3)cc2)[C@@H](Cc2ccccc2)C(=O)N2CCc3ccccc3C2)cn1 [Example 116, (S)—N-[1-Benzyl-2-(3,4-dihydro-1H-isoquinolin-2-yl)-2-oxo-ethyl]-3-(1-methyl-1H-pyrazol-4-yl)-N-(4-pyrazin-2-yl-benzyl)-acrylamide]",67
12,"Cc1c(C=CC(=O)N(Cc2ccc(-c3ccncc3)cc2)[C@@H](Cc2ccccc2)C(=O)N2CCc3ccccc3C2)cnn1C [Example 250, (S)—N-[1-Benzyl-2-(3,4-dihydro-1H-isoquinolin-2-yl)-2-oxo-ethyl]-3-(1,5-dimethyl-1H-pyrazol-4-yl)-N-(4-pyridin-4-yl-benzyl)-acrylamide]",2
13,"O=C([C@H](Cc1ccccc1)N(Cc1ccc(-c2ccccn2)cc1)C(=O)C=Cc1ccc(C(F)(F)F)cc1)N1CCc2c(F)cccc2C1 [Example 74, (S)—N-[1-Benzyl-2-(5-fluoro-3,4-dihydro-1H-isoquinolin-2-yl)-2-oxo-ethyl]-N-(4-pyridin-2-yl-benzyl)-3-(4-trifluoromethyl-phenyl)-acrylamide]",11
14,"O=C([C@H](Cc1ccccc1)N(Cc1ccccn1)C(=O)C=Cc1ccc(C(F)(F)F)cc1)N1CCc2ccccc2C1 [Example 6, (S)—N-[1-Benzyl-2-(3,4-dihydro-1H-isoquinolin-2-yl)-2-oxo-ethyl]-N-pyridin-2-ylmethyl-3-(4-trifluoromethyl-phenyl)-acrylamide]",25
15,"O=C(C(Cc1ccon1)N(Cc1ccc(-c2ccncc2)cc1)C(=O)C=Cc1ccc(C(F)(F)F)cc1)N1CCc2ccccc2C1 (racemic) [Example 87, rac-N-[2-(3,4-Dihydro-1H-isoquinolin-2-yl)-1-isoxazol-3-ylmethyl-2-oxo-ethyl]-N-(4-pyridin-4-yl-benzyl)-3-(4-trifluoromethyl-phenyl)-acrylamide]",194
16,"O=C(C(Cc1ncccn1)N(Cc1ccc(-c2ccncc2)cc1)C(=O)C=Cc1ccc(C(F)(F)F)cc1)N1CCc2ccccc2C1 (racemic) [Example 86, rac-N-[2-(3,4-Dihydro-1H-isoquinolin-2-yl)-2-oxo-1-pyrimidin-2-ylmethyl-ethyl]-N-(4-pyridin-4-yl-benzyl)-3-(4-trifluoromethyl-phenyl)-acrylamide]",162
17,"O=C([C@H](Cc1ccccc1)N(Cc1ccc(-c2nccs2)cc1)C(=O)C=Cc1ccc(C(F)(F)F)cc1)N1CCc2ccccc2C1 [Example 199, (S)—N-[1-Benzyl-2-(3,4-dihydro-1H-isoquinolin-2-yl)-2-oxo-ethyl]-N-(4-thiazol-2-yl-benzyl)-3-(4-trifluoromethyl-phenyl)-acrylamide]",4
18,"O=C([C@H](Cc1ccccc1)N(Cc1ccc(-c2ccccn2)cc1)C(=O)/C=C/c1ccc(C(F)(F)F)cc1)N1CCc2ccccc2C1 [Example 1, (S)—N-[1-Benzyl-2-(3,4-dihydro-1H-isoquinolin-2-yl)-2-oxo-ethyl]-N-(4-pyridin-2-yl-benzyl)-3-(trifluoromethyl-phenyl)-acrylamide]",3.5
19,"Cc1ncsc1C=CC(=O)N(Cc1ccc(-n2cncn2)cc1)[C@@H](Cc1ccccc1)C(=O)N1CCc2ccccc2C1 [Example 178, (S)—N-[1-Benzyl-2-(3,4-dihydro-1H-isoquinolin-2-yl)-2-oxo-ethyl]-3-(4-methyl-thiazol-5-yl)-N-(4-[1,2,4]-triazol-1-yl-benzyl)-acrylamide]",28
20,"CN1CCN(c2ccc(CN(C(=O)C=Cc3ccc(C(F)(F)F)cn3)[C@@H](Cc3ccccc3)C(=O)N3CCc4ccccc4C3)cc2)CC1 [Example 211, (S)—N-[1-Benzyl-2-(3,4-dihydro-1H-isoquinolin-2-yl)-2-oxo-ethyl]-N-[4-(4-methyl-piperazin-1-yl)-benzyl]-3-(5-trifluoromethyl-pyridin-2-yl)-acrylamide]",82
21,"Cc1noc(C)c1C=CC(=O)N(Cc1ccc(-c2ccncc2)cc1)[C@@H](Cc1ccccc1)C(=O)N1CCc2ccccc2C1 [Example 241, (S)—N-[1-Benzyl-2-(3,4-dihydro-1H-isoquinolin-2-yl)-2-oxo-ethyl]-3-(3,5-dimethyl-isoxazol-4-yl)-N-(4-pyridin-4-yl-benzyl)-acrylamide]",5

# Same assay, conditions: erythrocytic stages, strain K1 resistant to chloroquine and pyrimethamine, human red cells; read-out: IC50 (nM) on K1
row,Compound,IC50 [nM]
1,"O=C([C@H](Cc1ccccc1)N(Cc1ccc(-c2cc[n+]([O-])cc2)cc1)C(=O)C=Cc1ccc(C(F)(F)F)cc1)N1CCc2ccccc2C1 [Example 254, (S)—N-[1-Benzyl-2-(3,4-dihydro-1-H-isoquinolin-2-yl)-2-oxo-ethyl]-N-[4-(1-oxy-pyridin-4-yl)-benzyl]-3-(4-trifluoromethyl-phenyl)-acrylamide]",< 7.8
2,"CN(C)c1ccc(C=CC(=O)N(Cc2ccc(-c3ccccn3)cc2)[C@@H](Cc2ccccc2)C(=O)N2CCc3ccccc3C2)cc1 [Example 38, (S)—N-[1-Benzyl-2-(3,4-dihydro-1-H-isoquinolin-2-yl)-2-oxo-ethyl]-3-(4-dimethylamino-phenyl)-N-(4-pyridin-2-yl-benzyl)-acrylamide]",10
3,"COc1cc(C=CC(=O)N(Cc2ccc(-c3ccccn3)cc2)[C@@H](Cc2ccccc2)C(=O)N2CCc3ccccc3C2)cc(OC)c1 [Example 14, (S)—N-[1-Benzyl-2-(3,4-dihydro-1-H-isoquinolin-2-yl)-2-oxo-ethyl]-3-(3,5-dimethoxy-phenyl)-N-(4-pyridin-2-yl-benzyl)-acrylamide]",18
